Our source for the antimicrobial activity and hygroscopicity values is patent EP1918289A2, “Crystalline fluoroquinolone arginine salt form” (Wockhardt Limited, priority 2002, dated 2005).

Data set [1] in a line: antibacterial activity (minimum inhibitory concentration, MIC). Particulars: compared with the R-(+)- and RS-(±)- acids.
Data set [2] can be described thus: hygroscopicity (exposure or storage at relative humidity, gravimetric). Particulars: on exposure at a relative humidity of 41%.

Regarding `C[C@H]1CCc2c(N3CCC(O)CC3)c(F)cc3c(=O)c(C(=O)O)cn1c23`, the antimicrobial activity entry in data set [1] is reported as “more potent”.
As for “S-(-)-9-fluoro-6,7-dihydro-8-(4-hydroxypiperidin-1-yl)-5-methyl-1-oxo-1 H,5H-benzo[i,j] quinolizine-2-carboxylic acid, L-arginine salt 0.25 hydrate”, the hygroscopicity result in data set [2] is “highly hygroscopic and turn into syrups”.
With “S-(-)-9-fluoro-6,7-dihydro-8-(4-hydroxypiperin-1-yl)-5-methyl-1-oxo-1H,5H-benzo[i,j] quinolizine-2-carboxylic acid, L-arginine salt, 0.75 hydrate”, the hygroscopicity result in data set [2] was “highly hygroscopic and turn into syrups”.
